# In patent US20080281105A1, “Novel Quinolinium Salts and Derivatives” (IMMUSOL INCORPORATED, priority 2005, published 2008):
# Columns and labels:
# [1] = system: Panc-1, HCT-116, Pc3M/N, HEPG2, ASPC1, or H460 cells; experiment: Reduction of viable cell growth in glucose deprived media (liquid culture, alamarBlue); type: cell-based; details: for EC50: concentration giving at least 50% reduction of viable cell growth
# transformed cell growth = details: reported in the literature; cited from earlier work
# Lewis lung cancer cells [2] = experiment: Mouse Lewis lung cancer (LLC) xenograft model; type: in vivo, mice; details: 2 mg/kg intraperitoneal, 6 times per week; day 15; p<0.05; FIG. 6
# Procedure: Using the mouse Lewis lung cancer (LLC) xenograft model, female C57BL mice (4-6 weeks old) were inoculated (s.c.) with 5×10^5 Lewis lung cancer cells in PBS on the flanking site. Animals were randomly divided into treatment and control groups (n=8) based on tumor size when average tumor size reached 100 mm^3. Animals in the treatment group received the compound of Example 36 (also designated IMS2143) or the compound of Example 47 daily at 2 mg/kg via intraperitoneal dosing, 6 times per week respectively. The control group was injected with 0.9% NaCl. Tumor size and body weight were measured twice per week. Tumor volume was calculated using the formula TV=length×width×width/2.
# Lewis lung cancer cells [3] = experiment: Mouse LLC model, combination with 2DG; type: in vivo, mice; details: Example 36 2 mg/kg, 2DG 300 mg/kg, i.p. 6 times per week; p<0.05; FIG. 8
# Procedure: More specifically, female C57BL mice (4-6 weeks old) were inoculated (s.c.) with 5×10^5 Lewis lung cancer cells in PBS on the flanking site. Animals were randomly divided into treatment and control groups (n=8) based on tumor size when average tumor size reached 100 mm^3. Animals in the treatment groups received the compound of Example 36 daily at 2 mg/kg and 2DG at 300 mg/kg via intraperitoneal dosing, 6 times per week respectively. Tumor size and body weight were measured twice per week. Tumor volume was calculated using the formula TV=length×width×width/2.
# A549 cancer cells [4] = experiment: A549 NSCL xenograft model, combination with 2DG; type: in vivo, mice; details: 2DG 300 mg/kg, Example 36 2 mg/kg, i.p. daily (6 times per week); Example 36 alone p<0.05 at day 24 and 27; combination p<0.05 at day 13-27; FIG. 7
# From the text: Because the compounds of the invention may be more toxic to cancer cells deprived of glucose or treated with 2DG in vitro, the combination of 2DG with such compounds should have increased anti-tumor efficacy in vivo as compared with either agent alone. Accordingly, the effect of a combination therapy of the compound of Example 36 and 2DG using A549 NSCL xenograft model was examined.
# Female athymic nude mice (nu/nu) (4-6 weeks old) were inoculated (s.c.) with 5×10^6 A549 cancer cells in PBS on the flanking site. After the tumors reached an average size ˜100 mm^3, the animals were divided into four treatment groups—0.9% NaCl (control), 2DG at 300 mg/kg, the compound of Example 36 at 2 mg/kg, and a combination of 2DG (300 mg/kg) and the compound of Example 36 (2 mg/kg). All the treatments were delivered by intraperitoneal injection daily (6 times per week). Tumor size and body weight were measured twice per week. Tumor volume was calculated using the formula TV=length×width×width/2.
# [5] = system: eukaryotic translation system; details: reported by Malina; cited from earlier work
# H460 NSCL cells = experiment: Non-small cell lung cancer (NSCL) xenograft early stage model in nude mice; type: in vivo
# Procedure: The anti-tumor activity of the compound of Example 56 was tested in a nude mice xenograft early stage model. Female athymic nude (nu/nu) mice were inoculated with H460 NSCL cells and divided into two groups. The first group was dosed with vehicle (control), and the second group was dosed i. p. with the compound of Example 56 on a daily basis (6 times/week).
# A549 cancer cells [6] = experiment: A549 xenograft model, combination with taxol; type: in vivo, mice; details: paclitaxel 20 mg/kg once per 4 days i.p.; IMS2155 2 mg/kg daily i.p.; p<0.05 for monotherapies; FIG. 5
# Procedure: Combination treatment with taxol and the compound of Example 47 (also designated IMS2155) in the A549 (NCLC) model was tested. Taxol is one of standards of care for lung cancer.
# Female athymic nude mice (nu/nu) (4-6 weeks old) were inoculated (s.c.) with 5×10^6 A549 cancer cells in PBS on the flanking site. The animals were divided into four treatment groups when the average tumor size reached 150 mm^3: group 1 (PBS daily i.p. dosing), group 2 (20 mg/kg paclitaxel once per 4 days i.p. dosing), group 3 (2 mg/kg IMS2155 daily i.p. dosing) and group 4 (20 mg/kg paclitaxel once per 4 days i.p. dosing and 2 mg/kg IMS2155 daily i.p. dosing). The tumor size and body weight was measured twice per week. Tumor volume was calculated using the formula TV=length×width×width/2.
# It is noteworthy that IMS2155 worked almost as well as Taxol at the MTD dose (20 mg/kg for this strain of mice).
# PC3 prostate cells = experiment: PC3 medium-staged prostate xenograft model, combination therapy; type: in vivo, mice; details: Example 1 P.O. daily, doxorubicin or paclitaxel i.p.; tumors around 100 mm^3 at start; FIG. 3 and 4
# Procedure: The anti-tumor activity of compounds of the invention in combination with at least one additional chemotherapeutic agent was also tested in a nude mice xenograft model.
# (§1) A. Female athymic nude (nu/nu) mice were inoculated with PC3 prostate cells. When tumor volumes reached around 100 mm^3, the animals were divided into four groups with average size of tumors similar among the four groups. The first group was dosed with vehicle (as control), the second group with the compound of Example 1 (P.O. daily), the third with doxorubicin (i.p.) and the fourth with the combination (i.p. Dox/p.o. compound of Example 1).
# as §1, with “B.” for “A.”, “paclitaxel (taxol)” for “doxorubicin”, “(ip. taxol/p.o.” for “(i.p. Dox/p.o.”
SMILES,EC50 [1],also measured
Cc1cc(/C=C/c2ccc3cc(N4CCOCC4)ccc3[n+]2C)c(C)n1-c1ccccc1 [Example 26],1000 nM,
CN(C)c1ccc2c(ccc(/C=C/c3sccc3Oc3ccccc3)[n+]2C)c1 [Example 49],< 1000 nM,
Cc1c(C=O)c(/C=C/c2ccc3cc(N(C)C)ccc3[n+]2C)c(C)n1-c1ccccc1 [Example 28],< 1000 nM,
CN(C)c1ccc2c(ccc(/C=C/c3ccc(OCc4ccccc4)cc3)[n+]2C)c1 [Example 46],< 1000 nM,
CN(C)c1ccc2c(ccc(/C=C/c3ccc4oc(C(=O)c5ccc(Cl)cc5)cc4c3)[n+]2C)c1 [Example 42],1000 nM,
CCCCn1c(C)c(C=O)c(/C=C/c2ccc3cc(Cl)ccc3[n+]2C)c1C [Example 58],< 1000 nM,
CN(C)c1ccc2c(ccc(/C=C/c3ccc(OC(F)(F)F)cc3)[n+]2C)c1 [Example 44],1000 nM,
CC[n+]1c(C=Cc2ccc(N(C)C)cc2)ccc2ccccc21 [quinaldine red],,transformed cell growth (transformed cell growth): inhibitor of transformed cell growth
CN(C)c1ccc2c(ccc(/C=C/c3cccc(-c4cccs4)n3)[n+]2C)c1 [Example 31],1000 nM,
"Cc1cc(C=Cc2ccc3cc(OC(N)=O)ccc3[n+]2C)c(O)c2ncccc12 [NSC 86372, 6-(aminocarbonyloxy)-2-(2-(8-hydroxy-5-methylquinolin-7-yl)vinyl)-1-methylquinolinium]",,protein synthesis [5]: inhibited protein synthesis
CCCCn1c(C)c(C=O)c(/C=C/c2ccc3cc(N(C)C)ccc3[n+]2C)c1C.CS(=O)(=O)[O-] [Example 56],< 1000 nM,"Result: Tumor reduction (H460 NSCL cells; NSCL, H460 xenograft, I.p.): Tumor reduction (41%); H460 tumor size as compared to control (H460 NSCL cells; dosed i.p. daily (6 times/week), p<0.05, FIG. 2): significant reduction; toxicity (H460 NSCL cells; nude mice, H460 xenograft, i.p. daily (6 times/week)): no apparent toxicity"
CCCCc1nc(/C=C/c2ccc3cc(N(C)C)ccc3[n+]2C)c(Cl)[nH]1 [Example 39],> 1000 nM,
Cc1cc(/C=C/c2ccc3cc(N4CCCCC4)ccc3[n+]2C)c(C)n1-c1ccccc1 [Example 29],1000 nM,
CN(C)c1ccc2c(ccc(/C=C/c3cccc(Oc4ccccc4)c3)[n+]2C)c1 [Example 34],1000 nM,
CN(C)c1ccc2c(ccc(/C=C/c3ccc(OCc4ccsc4C#N)cc3)[n+]2C)c1 [Example 43],< 1000 nM,
"O=CC[C@@H](O)[C@H](O)[C@H](O)CO [Example 2DG, 2-deoxyglucose, reference compound]",,A549 tumor growth (A549 cancer cells [4]): no response
CN(C)c1ccc2c(ccc(/C=C/c3ccc(-c4nn(C)cc4C(F)(F)F)s3)[n+]2C)c1 [Example 38],1000 nM,
Cc1cc(/C=C/c2ccc3cc(N(C)C)ccc3[n+]2C)cc(C)c1OCc1ccccc1.O=S(=O)([O-])C(F)(F)F [Example 47],< 1000 nM,LLC tumor growth (Lewis lung cancer cells [2]): significantly suppressed tumor growth; A549 tumor size (A549 cancer cells [6]): significant reduction in tumor size
CN(C)c1ccc2c(ccc(/C=C/c3coc4ccccc4c3=O)[n+]2C)c1 [Example 40],1000 nM,
COc1cc(/C=C/c2ccc3cc(N(C)C)ccc3[n+]2C)ccc1OCc1ccccc1 [Example 45],< 1000 nM,
"CC(=O)O[C@H]1C(=O)[C@@]2(C)[C@H]([C@H](OC(=O)c3ccccc3)[C@]3(O)C[C@H](OC(=O)[C@H](O)[C@@H](NC(=O)c4ccccc4)c4ccccc4)C(C)=C1C3(C)C)[C@]1(OC(C)=O)CO[C@@H]1C[C@@H]2O [Taxol, paclitaxel, reference compound]",,growth of PC3 medium-staged xenograft tumors (PC3 prostate cells): reduced tumor size significantly; A549 tumor size (A549 cancer cells [6]): significant reduction in tumor size
Cc1cc(/C=C/c2ccc3cc(N(C)C)ccc3[n+]2C)oc1C [Example 33],1000 nM,
CCOC(=O)c1c(/C=C/c2ccc3cc(N(C)C)ccc3[n+]2C)c(C)n(C2CC2)c1C [Example 53],< 1000 nM,
CCCCn1c(C)c(C=O)c(/C=C/c2ccc3cc(C)ccc3[n+]2C)c1C [Example 57],< 1000 nM,
CN(C)c1ccc2c(ccc(/C=C/c3ccc(Oc4ccccc4)cc3)[n+]2C)c1 [Example 35],< 1000 nM,
CCn1c2ccccc2c2cc(/C=C/c3ccc4cc(N(C)C)ccc4[n+]3C)ccc21 [Example 51],< 1000 nM,

# Second part, led by results:
EC50 [1],SMILES,also measured
> 1000 nM,CN(C)c1ccc2c(ccc(/C=C/c3cc(C(=O)c4ccc(F)cc4)cn3C)[n+]2C)c1.O=S(=O)([O-])C(F)(F)F [Example 52],reduction of viable cell growth ([1]; at the concentration stated in Table 3): inactive
1000 nM,Cc1cc(/C=C/c2ccc3cc(N4CCC(C)CC4)ccc3[n+]2C)c(C)n1-c1ccccc1 [Example 30],
< 1000 nM,CN(C)c1ccc2c(ccc(/C=C/c3ccc(C#Cc4ccccc4)s3)[n+]2C)c1 [Example 50],
< 1000 nM,COCCn1c(C)c(C=O)c(/C=C/c2ccc3cc(N(C)C)ccc3[n+]2C)c1C [Example 25],
< 1000 nM,CCCCOc1ccc(/C=C/c2ccc3cc(N(C)C)ccc3[n+]2C)cc1.O=S(=O)([O-])C(F)(F)F [Example 36],LLC tumor growth (Lewis lung cancer cells [2]): significantly suppressed tumor growth; LLC tumor growth as compared with 2DG alone or control (Lewis lung cancer cells [3]): significantly inhibited tumor growth; A549 tumor growth (A549 cancer cells [4]): significantly inhibited tumor growth
< 1000 nM,CCOC(=O)c1c(/C=C/c2ccc3cc(N(C)C)ccc3[n+]2C)c(C)n(Cc2cccs2)c1C [Example 55],
1000 nM,CN(C)c1ccc2c(ccc(/C=C/c3cn(S(=O)(=O)c4ccccc4)c4ccccc34)[n+]2C)c1 [Example 41],
> 1000 nM,CCCCn1c(C)c(C=O)c(/C=C/c2ccc3cc(N4CCOCC4)ccc3[n+]2C)c1C [Example 27],
1000 nM,CN(C)c1ccc2c(ccc(/C=C/c3ccc(-c4cc(C(F)(F)F)nn4C)s3)[n+]2C)c1 [Example 37],
1000 nM,CN(C)c1ccc2c(ccc(/C=C/c3ccc(-c4ccccc4)s3)[n+]2C)c1 [Example 32],
< 1000 nM,CCOC(=O)c1c(/C=C/c2ccc3cc(N(C)C)ccc3[n+]2C)c(C)n(-c2ccccc2)c1C [Example 54],
> 1000 nM,Cc1c(/C=C/c2ccc3cc(N(C)C)ccc3[n+]2C)cnn1-c1ccccc1 [Example 48],
